In article PMC11574045, “A cofactor-induced repressive type of transcription factor condensation can be induced by synthetic peptides to suppress tumorigenesis” (The EMBO Journal, 2024):

Test system: HEK293FT cells transfected with TF library
Test: Screening of TF condensates based on fluorescent puncta
Type: cell-based
Conditions: Figure 1B numerical data; TF library screen, one value per transcriptional factor
Experimental: TF plasmids were automatically added to black-walled 384-well plates at 80 ng per well to reach a final concentration of 1.6 μg/ml. Polyethylenimine (PEI, Sigma) was then added to the plasmid-loaded plates at 240 ng per well (4.8 μg/ml). Subsequently, HEK293FT cells were seeded into the plate at 2000 cells per well. After 60 h, cells were cultured in medium with or without glucose for 12 h, and then fixed with 4% paraformaldehyde (PFA) at room temperature for 30 min. After three washes with PBS, fixed cells were permeabilized with 0.05% Triton X-100 for 15 min. Thereafter, cells were blocked with 5% BSA for 1 h, and then incubated overnight with anti-Flag (Sigma F3165, 1:200) and anti-GAL4 (Abbkine ABP57232, 1:200) primary antibodies at 4 °C. The cells were then gently washed with PBS, followed by being incubated with Alexa Fluor Plus 488 goat anti-mouse IgG secondary antibody (Thermo A32723, 1:400) or Alexa Fluor Plus 488 goat anti-rabbit IgG secondary antibody (Thermo A32731, 1:400) for 1 h. The plates were kept at 4 °C in the dark before being analyzed using an Opera System (Perkin Elmer). Fifty random fields per well were scanned and analyzed using the Columbus Plus Image Data Storage and Analysis System (Perkin Elmer).

Substance | Z score of condensed fraction
ANKRD1 | 1.047
AP-2A | 0.4428
ARNT2 | -0.9281
ARX | -0.4034
ATF4/CREB2 | 2.625
BACH2 | 2.257
BHLHE22 | 1.286
BIRC3 | -0.652
BMAL1 | -0.6251
BTEB1 | -0.01224
CFOS | 0.6801
CHD6 | -1.082
COPEB | -0.3064
COPS5 | -0.1538
CREB1 | -0.9562
CSDA | -0.8745
CTBP2 | 1.5
DLX3 | -0.9246
DLX5 | -0.5192
DLX6 | -0.9336
DMBX1 | -0.1986
DMRTB1 | 1.668
DOUBLESEX | -0.4806
DYRK1B | -0.5775
EED | -1.11

Substance | Z score of condensed fraction
EGR2 | -0.8859
EGR3 | 0.2174
EHF | -0.3879
ELF1 | 3.027
ELK3 | 0.04681
ELK4 | 0.361
EPAS1 | -0.6882
ETS2 | -0.1278
ETV6 | -0.2068
FEV | -0.8157
FIGLA | 0.3984
GATA3 | -0.2833
GBX1 | 1.521
GFI1 | -0.2635
GFI1B | -0.772
GLI2 | -0.605
GSC2 | -0.9708
HDGF | 2.149
HIVEP2 | -0.8032
HMGN3 | 1.967
HOX11L2/RNX | 0.134
HOXA1 | -0.1685
HOXA3 | -0.6169
HOXA5 | -1.091
HOXA6 | 1.681

Substance | Z score of condensed fraction
HOXA9 | -1.01
HOXA10 | -0.1146
HOXA11 | -0.6499
HOXB4 | -1.061
HOXB5 | -0.4916
HOXB7 | 0.6165
HOXB8 | -0.6846
HOXB13 | -0.5432
HOXC4 | 0.8193
HOXC5 | -0.4333
HOXC9 | -0.7207
HOXC10 | -0.2628
HOXC11 | -0.01391
HOXD1 | -0.8333
HOXD4 | -0.2008
HOXD10 | -0.4162
HOXD11 | -0.6245
HOXD12 | 0.1237
KDM5C | 0.549
KDM5D | 0.3583
KLF7 | 1.062
KLF9 | -0.8423
KLF13 | -0.9454
KLF15 | 0.8588
KLF16 | -0.8935

Substance | Z score of condensed fraction
LHX6 | -0.2026
LHX8 | -0.6943
LYL1 | -0.8803
MAD2 | -0.8457
MAFG | 0.65
MAX | 1.089
MECOM | -0.8438
MEOX1 | -0.5142
MIXL1 | -0.6564
MSX1 | -0.7505
MTF1 | 0.05882
MYT1L | -0.407
NEUROD6 | 1.486
NFIA | 0.5032
NFIB | 0.509
NFIC | -0.8557
NH1H1 | -0.5104
NKX3-1 | -0.7603
NKX3-2 | 1.062
NPM1 | 0.01602
NR2E1/TLX | -0.5566
NR5A1 | -0.8082
NRBF2 | -0.07151
OTX1 | -0.7284
PAX2 | -1.114

Substance | Z score of condensed fraction
PAX6 | -0.2168
PAX9 | -0.6994
PBRM1 | -1.101
PCBD2 | -0.6918
PDX1 | -0.1162
PHF19 | -0.6582
PHOX2A | 0.2668
PHOX2B | -1.179
PITX1 | 0.6327
PITX3 | 1.221
PNRC2 | 0.4868
PRDM1 | -0.6129
PRDM2 | -1.186
PRDM4 | -0.7551
PRDM13 | -0.08172
PRRX1 | -0.08333
PSMC3 | 1.134
RAX2 | 0.03236
RERE | -0.9918
RHOA | 2.893
RREB1 | -1.018
SOX5 | -1.09
SOX11 | 1.034
SOX14 | 0.5877
SOX15 | 0.259

Substance | Z score of condensed fraction
SOX17 | 0.6231
SOX21 | -0.645
SP1 | -0.5886
SP4 | 0.4803
SP7 | -0.6845
SP8 | -1.149
SPIB | -0.6455
SSX1 | 0.2068
ST18 | -0.7086
SUMO1 | -0.2512
SUPT3H | 2.5076
TADA1L | -0.6293
TAF11 | -0.1333
TAL1 | 1.608
TAL2 | 1.36
TFAP2C | 1.42
TFAP2D | -0.6052
TFAP2E | 1.779
TGIF2 | 0.8605
TIGD4 | -0.7471
TLX2 | -0.3265
TULP4 | -0.4703
VSX1 | 0.9653
VSX2 | 2.883
WIZ | -0.9233

Substance | Z score of condensed fraction
XRCC6 | -0.8161
ZBTB8A | 0.3848
ZBTB14 | -0.8092
ZBTB16 | 0.8279
ZDHHC17 | 0.6824
ZFP1 | -1.01
ZFP37 | -0.4393
ZFP161 | -0.4432
ZFP238 | -0.7406
ZFP263 | 2.5993
ZKSCAN8 | -0.06563
ZNF10 | -0.8346
ZNF22 | -0.4323
ZNF34 | -0.5261
ZNF37A | -0.5462
ZNF57 | 0.3
ZNF77 | -1.086
ZNF92 | 0.2513
ZNF132 | -0.5777
ZNF133 | -0.4329
ZNF136 | -0.8979
ZNF175 | -0.614
ZNF177 | -0.2364
ZNF197 | -0.8156
ZNF212 | -0.4443

Substance | Z score of condensed fraction
ZNF221 | -0.687
ZNF223 | 0.1367
ZNF227 | -1.039
ZNF230 | 0.8569
ZNF254 | 0.4246
ZNF257 | 0.03056
ZNF267 | 2.62
ZNF273 | -0.8812
ZNF302 | -1.141
ZNF320 | 0.5251
ZNF329 | -0.4972
ZNF333 | -0.8758
ZNF345 | -1.14
ZNF404 | -1.0199
ZNF417 | 1.093
ZNF432 | -0.5974
ZNF433 | -0.2089
ZNF454 | -0.2763
ZNF490 | -0.9623
ZNF496 | 0.02283
ZNF500 | -0.7824
